Data: PubChem BioAssay AID2253 (Southern Research Specialized Biocontainment Screening …, 2010)

test system: THP-1 viability, CellTiter-Glo luminescence, 72 h; experiment: THP-1 cell cytotoxicity, dose response, cytotoxicity control for Salmonella PhoP regulon inhibitors, S. typhimurium screen hits (AID 2253)

**Q.** Which EC50 does the source give for Cc1cccc(Nc2c3c(nc4ccccc24)CCC3)c1 here?
**A.** 9.08 µM

**Q.** For O=C1c2ccccc2C2=Nc3ccccc3SC(c3cccc(F)c3)C12 (configuration not stated), which EC50 is on record?
**A.** 8.95 µM

**Q.** How did the EC50 turn out when O=C(Nc1ccc(S(=O)(=O)N2CCCC2)cc1)c1ccc(CN2CCc3ccccc3C2)cc1 was run?
**A.** 26.5 µM

**Q.** For CCCCCC(CC(=O)NO)C(=O)NC(C(=O)N1CCCC1CO)C(C)C (configuration not stated), which EC50 is on record?
**A.** 36.2 µM

**Q.** With O=[N+]([O-])c1cc(CN2CCCC2)c2cccnc2c1O as the compound, how does the EC50 read?
**A.** 41.2 µM

**Q.** Which EC50 does the source give for CCCC(=O)NC(c1ccc(Cl)cc1)c1ccc2cccnc2c1O (configuration not stated) here?
**A.** 0.38 µM

**Q.** How did the EC50 turn out when N=c1n(CCO)c2ccccc2n1Cc1ccc(Cl)cc1 was run?
**A.** 41.1 µM

**Q.** How did the EC50 turn out when CCCCCOc1ccc(Br)cc1CSC(=N)N was run?
**A.** 1.86 µM

**Q.** CCCCCCCCCCCCCCCC[n+]1cccc2ccccc21 was tested. Which EC50 did it give?
**A.** 0.27 µM

**Q.** How did the EC50 turn out when COc1ccc(Nc2nc(-c3c[nH]c4ccccc34)cs2)cc1 was run?
**A.** 15.6 µM

**Q.** CCN(CC)c1ccc(S(=O)(=O)Nc2cc(Cl)ccc2Cl)cc1NC(=S)NC(=O)C1CCCC1 was tested. Which EC50 did it give?
**A.** 40 µM

**Q.** For c1ccc(CN2CCN(c3nc(NCc4ccco4)c4ccccc4n3)CC2)cc1, which EC50 is on record?
**A.** 20.6 µM

**Q.** For CCN(CC)S(=O)(=O)c1cccc(C(=O)N/N=C/c2ccc(O)c(O)c2O)c1, which EC50 is on record?
**A.** 6.68 µM

**Q.** Cc1[nH]n(-c2ncc(-c3ccc(Cl)cc3)s2)c(=O)c1C(c1ccc(Cl)cc1)C(C#N)C#N (configuration not stated) was tested. Which EC50 did it give?
**A.** 45 µM

**Q.** For CCNC(=S)NNC(=O)c1ccccn1, which EC50 is on record?
**A.** 25.5 µM

**Q.** For CCCC(=O)NC(c1ccc(C)cc1)c1ccc2cccnc2c1O (configuration not stated), which EC50 is on record?
**A.** 0.46 µM

**Q.** How did the EC50 turn out when S=C(NCc1cccnc1)Nc1ccc(Cl)c(Cl)c1 was run?
**A.** 40 µM

**Q.** Cc1cc(NC(c2cccnc2)c2ccc3cccnc3c2O)no1 (configuration not stated) was tested. Which EC50 did it give?
**A.** 1.79 µM

**Q.** With CC1(C)CC(=O)C2=C(C1)N(c1ccc(F)cc1)C(N)=C(C#N)C2c1cccs1 (configuration not stated) as the compound, how does the EC50 read?
**A.** 35.6 µM

**Q.** For CN1/C(=C\C=C\C2=[N+](C)c3ccc4ccccc4c3C2(C)C)C(C)(C)c2ccccc21, which EC50 is on record?
**A.** 0.15 µM

**Q.** Which EC50 does the source give for Nc1ccc2c(c1)C(=O)C(=O)c1ccccc1-2 here?
**A.** 2.23 µM

**Q.** With C[CH2][Hg][S]c1ccccc1C(=O)O as the compound, how does the EC50 read?
**A.** 0.71 µM

**Q.** With NCCCC[C@H]1CN=C(N)N1CCC12CC3CC(CC(C3)C1)C2 as the compound, how does the EC50 read?
**A.** 33.1 µM

**Q.** Which EC50 does the source give for Cc1ccc(C(=O)NNc2c3ccccc3nc3ccccc23)cc1 here?
**A.** 27.5 µM

**Q.** O=C(Nc1nc(-c2ccncc2)cs1)C1c2ccccc2Oc2ccccc21 was tested. Which EC50 did it give?
**A.** 16.9 µM

**Q.** O=C1c2ccccc2NC(c2ccc(-c3cccc(Cl)c3)o2)N1O (configuration not stated) was tested. Which EC50 did it give?
**A.** 24.6 µM

**Q.** Nc1nonc1C(=O)N/N=C/c1cc(Br)ccc1O was tested. Which EC50 did it give?
**A.** 3.12 µM

**Q.** With NC1=NC[C@H](Cc2ccc(O)cc2)N1CCCCC1CCCCC1 as the compound, how does the EC50 read?
**A.** 2.63 µM

**Q.** With CN1CCN(C(c2ccc(Br)cc2)c2cc(Cl)c3cccnc3c2O)CC1 (configuration not stated) as the compound, how does the EC50 read?
**A.** 3.87 µM

**Q.** With CC(C(=O)c1ccc(-c2ccccc2)cc1)[n+]1cccc(NC(=O)c2ccccc2)c1 (configuration not stated) as the compound, how does the EC50 read?
**A.** 19.6 µM

**Q.** How did the EC50 turn out when CNc1nc(NCc2ccccc2)c2ccccc2n1 was run?
**A.** 10 µM

**Q.** For Cc1ccc2[nH]c3c(NCc4ccccc4)ncnc3c2c1, which EC50 is on record?
**A.** 17.1 µM

**Q.** COc1cccc(Nc2nc(-c3sc(NC(=O)c4ccco4)nc3C)cs2)c1 was tested. Which EC50 did it give?
**A.** 40.5 µM

**Q.** Which EC50 does the source give for COc1ccccc1Nc1nc(NCc2ccco2)c2ccccc2n1 here?
**A.** 16.2 µM

**Q.** C/C(=N\NC(=O)c1cc2ccccc2cc1O)c1ccccn1 was tested. Which EC50 did it give?
**A.** 0.76 µM

**Q.** How did the EC50 turn out when O=C(N/N=C/c1c[nH]c2ccccc12)c1cc(-c2cccc3ccccc23)n[nH]1 was run?
**A.** 13.8 µM

**Q.** Which EC50 does the source give for CCCNC1=C(C)C(=O)C2=C(C1=O)C(COC(N)=O)[C@]1(OC)C3NC3CN21 (some centres not stated) here?
**A.** 10.1 µM

**Q.** With Cc1[nH]n(-c2ccccc2)c(=O)c1/C=N/Nc1nncc(-c2ccccc2)n1 as the compound, how does the EC50 read?
**A.** 0.57 µM

**Q.** With CN(C)C=NC(=O)c1[nH]c2ccc(Cl)cc2c1-c1ccccc1 as the compound, how does the EC50 read?
**A.** 13.6 µM

**Q.** For Brc1cccc(CNc2nc3ccccc3n2CCN2CCCCC2)c1, which EC50 is on record?
**A.** 26.3 µM

**Q.** COc1ccc(C(C[N+](=O)[O-])C2(c3ccc(OC)c(OC)c3)C(=O)c3ccccc3C2=O)cc1 (configuration not stated) was tested. Which EC50 did it give?
**A.** 12.5 µM

**Q.** For CCCCCCCCCn1c2c(c(=N)c3c1CCC3)CCC2, which EC50 is on record?
**A.** 0.42 µM

**Q.** For Clc1ccc(OCCCNCc2ccccc2)c(Br)c1, which EC50 is on record?
**A.** 11.5 µM

**Q.** Cc1ccccc1-n1nnnc1Sc1nnnn1-c1ccccc1 was tested. Which EC50 did it give?
**A.** 12 µM

**Q.** With COc1ccc(OCCSc2nnc3sc4ccccc4n23)cc1 as the compound, how does the EC50 read?
**A.** 44.1 µM

**Q.** Which EC50 does the source give for CCCCCCCCCC[N+](C)(C)CC/C=C1/c2ccccc2Sc2ccc(Cl)cc21 here?
**A.** 1.67 µM

**Q.** With COc1ccc(C(=O)On2c(-c3ccc(Br)cc3)nc3ccccc3c2=O)cc1 as the compound, how does the EC50 read?
**A.** 12.8 µM

**Q.** For COc1ccc(OCc2n(CC(=O)OC3CC(C)CCC3C(C)C)c3ccccc3[n+]2C)cc1 (configuration not stated), which EC50 is on record?
**A.** 1.6 µM

**Q.** How did the EC50 turn out when CCN1/C(=C/C(C)=C/c2sc3ccccc3[n+]2CC)Sc2ccccc21 was run?
**A.** 13.6 µM

**Q.** CCn1c(N)[n+](CC(=O)Nc2ccc(SC(F)F)cc2)c2ccccc21 was tested. Which EC50 did it give?
**A.** 13.3 µM

**Q.** O=C(NNc1c2ccccc2nc2ccccc12)c1cccc(O)c1 was tested. Which EC50 did it give?
**A.** 23.2 µM

**Q.** Which EC50 does the source give for NNC(=O)CNC(c1ccccc1)c1cc(Br)ccc1NC(=O)c1ccc(Br)cc1 (configuration not stated) here?
**A.** 39.5 µM

**Q.** Which EC50 does the source give for S=C(Nc1cccc(Cl)c1)Nc1cccc2cnccc12 here?
**A.** 19 µM

**Q.** For Cc1ccc(Nc2nc(Cl)nc(N(C)C#N)n2)cc1, which EC50 is on record?
**A.** 13.6 µM

**Q.** For Nc1nc2ccccc2n1CCOc1ccccc1Cl, which EC50 is on record?
**A.** 12.8 µM

**Q.** For Cc1ccc(C(=O)N/N=C/c2ccc([N+](=O)[O-])s2)cc1, which EC50 is on record?
**A.** 12.3 µM

**Q.** How did the EC50 turn out when CN1/C(=C\C=N\NC(=O)c2ccccc2Br)C(C)(C)c2ccccc21 was run?
**A.** 32.2 µM
